Reference: patent publication US12139505B2, “Compositions useful in therapy of autophagy-related pathologies, and methods of making and using the same” (The University of Toledo, priority 2017, dated 2024)

Key:
[1] = test system: RG2 glioma cells; test: Autophagic flux assay (LC3-II western blot in the presence of bafilomycin-A1); assay type: cell-based, rat
Experimental: In the assay, cells are treated with subtoxic concentrations of bafilomycin-A, which blocks lysosomal acidification. This prevents autophagosome fusion with lysosomes at a specific point. For example, RG2 glioma cells (or other cell types) are “clamped” by addition of 10-50 nM bafilomycin-A1 to block autophagosome fusion with lysosomes and eliminate autophagy clearance. Then, autophagy flux is measured by the conjugation of phosphatidylethanolamine to LC3-I, yielding an electrophoretically separable LC3-II by western blot. LC3-II acts as a link between nascent autophagosomes and cargo being directed into these structures. An autophagy enhancer will increase LC3-II in the presence of bafilomycin, whereas a compound that inhibits autophagy completion will not do so. Thus, the L3A-I to LC3A-II conversion in the presence of bafilomycin-A1 constitutes a valid measure of autophagy.
For the assays, rat glioma cells RG2 (ATCC® CRL-2433™; RG2 cells) were cultured. […] The cells were then incubated for an additional 4 h. At termination, the cell culture medium was removed, cells were washed with PBS and lysed on ice in Pierce RIPA buffer containing protease and phosphatase inhibitors.
Western Blotting: The proteins were electrophoresed and wet-blotted to polyvinylidine difluoride membranes, blocked overnight in 4% bovine serum albumin, and developed using antibodies obtained from Cell Signaling Technology (L3A: cat #. 4599; ULK1: cat #. 8054, ULK1(p757): cat #. 6880).
RG2 glioma cells were treated without drug (first column in FIG. 8A) or 4 h with 50 nM bafilomycin-A1 (BAF), the indicated concentration of LK, or the phosphonate analog 2-isopropyl-LK-3-phosphonate. The western blot results are shown in FIG. 8A, where the lower band corresponds to LC3-II. An increase in the intensity of this band in the presence of bafilomycin-A1 indicates increased autophagic flux. […] Similar results are shown in FIG. 9 with respect to the LK-P compound 2-butyl-lanthionine-phosphonate (also referred to as 2-n-butyl-lanthionine-phosphonate or 2-n-butyl-LK-P).
RG2 glioma cells (American Tissue Type Collection, ATTC, Rockville MD USA) were treated for 4 h with 50 nM bafilomycin-A1 (previously dissolved to 1000× final concentration in dimethylsulfoxide). Thirty minutes after addition of bafilomycin, cells were treated with test agents at 100× final concentration. Cells were lysed in RIPA buffer containing protease and phosphatase inhibitors. Protein concentration was assayed and normalized to constant values (typically 5-7 mg/mL). Proteins were electrophoresed across 4-20% polyacrylamide gels and wet blotted onto polyvinylidine difluoride (PVDF) membranes. Proteins were blotted with commercially available antibodies against LC3.

[2] = test system: SH-SY5Y cells; test: Cell viability, MTS assay; assay type: cell-based, human; details: for average cell viability: 24 hours; for toxicity to neuroblastoma cells: 0.1 to 1 μM
Experimental: Synthesized compounds were added to a 3-dram screw capped vial, followed by DMSO (ca. 5 mL) to make a 10 mM stock solution. The test stock solution was made and used on the same day. 100 μL of the 10 mM stock solution was diluted into 900 μL of DMSO (1:9 dilution) to make 1 mM stock solution. 100 μL of the 1 mM stock solution was diluted into 900 μL of DMSO (1:9 dilution) to make a 100 μM solution. 100 μL of the 100 μM stock solution was diluted into 900 µL of DMSO (1:9 dilution) to make a 10 μM stock solution. The test solutions were prepared by using the dilution ratio of 10 μL stock solutions into 990 μL (1:99 dilution) of Complete Culture Media (CCM) to afford drug solution (1% DMSO) from 0.1 to 100 μM. For positive control: 10 mg/mL of TritonX-100 is diluted in CCM. For negative control: 1 μL of DMSO is dissolved in every 100 μL of CCM.
Cells were grown in bulk in 100 mm petri dishes. On the day of use, the cell culture media was removed from the dish. SH-SY5Y cells were washed with PBS, then 0.25% Trypsin/EDTA was used to aid in detaching the cells, CCM was then added to neutralize the Trypsin/EDTA and wash the cells from the dish. Washed cells are collected in a centrifuge tube for concentration. After centrifugation at 2000 RPM for 5 minutes, the cells were re-suspended in CCM. The final concentration of cells was 5×10^3 per 100 μL The 5000 cells/100 μL solution was seeded into a clear, flat bottomed, 96-well microliter plate and incubated for 24 hours at 37° C. in 5% CO2. After 24 hours, the media was removed and replaced by 100 μL CCM containing the drug/positive/negative control and was incubated at 37° C. in a 5% CO2 for 24 hours. After this incubation period, 20 μL of MTS solution was added to each well via a multichannel pipette. The plates were shaken by hand to thoroughly mix the MTS solution into the media and incubated at 37° C. in a 5% CO2 for 4 hours. The absorbance was read at 490 nm using the Synergy Neo microplate reader.

CCCCCCC1=C(P(=O)(O)O)N[C@H](C(=O)OCC)CS1 [2-n-hexyl-LKE-P]
concentration at which the compound is potent in stimulating autophagy ([1]; RG2 cells, FIG. 32A): 0.1 µM
potency relative to known results for LKE ([1]; RG2 cells, FIG. 32A): approximately 10 fold
autophagic flux / autophagy stimulation (LC3-II band in the presence of bafilomycin-A1) ([1]; RG2 glioma cells, 4 h, 50 nM bafilomycin-A1, western blot): stimulate autophagy in RG2 cells
concentration at which toxicity begins to show [2]: 10 µM
average cell viability ([2]; 10 μM): 83%
average cell viability ([2]; 100 μM): 63%
toxicity to neuroblastoma cells [2]: not toxic
toxicity to neuroblastoma cells ([2]; listed as 2-n-heyxl-LKE-P): no toxicity
